Consider 13 compounds from ChEMBL document CHEMBL1128596, “Thienylimidazo[2,1-b]thiazoles as inhibitors of mitochondrial NADH dehydrogenase” (J Med Chem, 1995).

One assay has as its system Parascaris equorum. In words: Residual NADH:UBQ:DCIP reductase activity in parascaris mitochondrial particles. On the set-up: concentration or dose not given beside the values.
A further assay is filed under the species Bos taurus. Nature of the assay: Residual NADH:UBQ:DCIP reductase activity in beef mitochondrial particles. On the set-up: concentration or dose not given beside the values.
Assay [1] can be described thus: Compound was tested for it's ability to inhibit NADH UBQ reductase activity in beef mitochondrial particles. On the set-up: species or system Bos taurus.
Assay [2] is described as follows: Compound was tested for it's ability to inhibit NADH UBQ reductase activity in parascaris mitochondrial particles.

Each structure is given as a SMILES string. pIC50: −log10 of the molar value.

For orientation: residual activity means the activity still measured, relative to the control. What is called pIC50 is the negative decadic logarithm of the IC50, by convention in mol/L.

Take `c1csc(-c2cn3c(n2)SCC3)c1`: the residual activity with Parascaris equorum came to 88%; in the assay filed under Bos taurus, 68%.
The matching figures for `Cn1c(-c2ccccc2)c(/C=C/c2cccs2)[n+]2ccsc12`: 94% and 81%.
For the compound `Cc1cn2cc(-c3ccsc3)nc2s1`, the residual activity in the assay with Parascaris equorum worked out at 73%; in the assay listed under Bos taurus it was 40%. The negative-log IC50 (pIC50) in assay [1] is 3.85.
Regarding `Cn1c(Cl)c(/C=C\c2cccs2)[n+]2c1SCC2`, the residual activity worked out at 92% in the assay with Parascaris equorum and 85% in the assay listed under Bos taurus.
As to `Cc1cn2cc(-c3cccs3)nc2s1`, the results for the residual activity in the assay on Parascaris equorum and in the assay filed under Bos taurus were 59% and 28%, respectively. Moreover, the pIC50 was 3.66 in assay [2] and 4.15 in assay [1].
On to `Cc1csc2nc(-c3cccs3)cn12`, for which the residual activity with Parascaris equorum worked out at 70%; in the assay listed under Bos taurus, 38%. Also, the pIC50 in assay [2] is 3.42; in assay [1], 4.05.
For the compound `c1cc(-c2cn3ccsc3n2)cs1`, the residual activity in the assay on Parascaris equorum came out at 83%; in the assay listed under Bos taurus, 68%.
Consider `Clc1cn2cc(-c3cccs3)nc2s1`, for which the residual activity worked out at 75% in the assay with Parascaris equorum and 40% in the assay listed under Bos taurus.
For `C=C(C)[C@H]1Cc2c(ccc3c2O[C@@H]2COc4cc(OC)c(OC)cc4[C@@H]2C3=O)O1`, the residual activity was 65% with Parascaris equorum and 34% in the assay listed under Bos taurus.
As to `Cc1csc2nc(-c3ccsc3)cn12`, the figures for the residual activity in the assay on Parascaris equorum and in the assay listed under Bos taurus were 75% and 43%, respectively. In assay [1], the pIC50 is 3.68.
For `Cn1c(Cl)c(/C=C/c2cccs2)[n+]2c1SCC2`, the residual activity with Parascaris equorum was determined as 88%; in the assay filed under Bos taurus, 91%.
For the compound `c1csc(-c2cn3ccsc3n2)c1`, the figures for the residual activity in the assay on Parascaris equorum and in the assay listed under Bos taurus were 79% and 57%, respectively.
Consider `Cn1c(-c2ccccc2)c(/C=C/c2cccs2)[n+]2c1SCC2`, for which the residual activity with Parascaris equorum was 92%; in the assay listed under Bos taurus, 77%.
